Structures can show the parent of a compound that is named as a salt.
Tests used:
[1] = tested on: luminescent bacteria (vibrio fischeri); test: Ecotoxicity test, relative luminescence of luminescent bacteria; format: cell-based; details: for relative luminescence of the luminescent bacteria: supernatant of microcystis aeruginosa culture treated at 1 μM
Experimental: In order to investigate the effect of the compound according to an example of the present disclosure, that is, a composition according to [Chemical Formula 1] on the ecosystem, biotoxicity evaluation indicator organisms such as luminescent bacteria (vibrio fischeri) and daphnia (Daphnia magna) was used to evaluate the ecotoxicity.
First, in the case of the luminescent bacteria, an experiment was conducted according to the water pollution process test method, and as a sample for ecotoxicity evaluation, the compound specified in Example 1 was added to the blue-green algae, microcystis aeruginosa (10,488 cells/mL) at a concentration of 1 μM, and then, the supernatant was taken after 24 hours, 48 hours, and 72 hours and the luminescent bacteria were injected. Thereafter, the relative luminescence of the treated group compared to the control group was measured to confirm the luminescence reduction effect, and thus, the toxicity of each sample was evaluated.

Synedra = test: Algal effect experiment (algal activity by cell counting); format: cell-based, synedra sp.; details: 1 μM, second day; cell growth observed again afterwards
Experimental: (§1) The harmful algae algal effect at various inoculation concentrations of the compounds according to an example of the present disclosure was measured. To this end, freshwater harmful algae as treated group include blue-green algae, cyanobacteria microcystis aeruginosa, dolichospermum circinale, aphanizomenon sp., and pseudoanabaena sp., diatoms, stephanodiscus hantzschii, and synedra sp., and green algae, scenedesmus sp., and seawater harmful algae includes trichodesmium sp., alexandrium tamarens, cochlodinium polykrikoides, prorocentrum minimum, and heterosigma akashiwo which are blue-green algae, and pseudo-nitzschia pungens fungens which is diatoms. […]
(§2) Reviewing the details of the experiment, in the case of freshwater species, 5 mL of each culture line was prepared so that the cell density was 5.0×10^3-9.0×10^4 cells/mL, and in the case of seawater species, was prepared so that the cell density was 1.0×10^2-1.0×10^4 cells/mL. […] Counting of the number of cells was performed through an SR-chamber or a hemocytometer under an upright or inverted microscope, and by counting the number of cells after 24 hours, 48 hours, and 72 hours, the reduction ratio of cells compared to before treatment, that is, algal activity (%) was calculated using the following [Equation 1]. […]
(§3) Based on the above [Formula 1], the algal activity of the compound was expressed as 60% or less, 60 to 80%, 80% or more. […]

microcystis = test: as above; format: cell-based, microcystis aeruginosa; details: concentration of 1 μM or more
Experimental: as §1, §2, §3

[2] = Solubility in organic solvents; format: physicochemical
Description: Therefore, diethyl ether (Et2O) is recommended for washing.

akashiwo sanguinea = test: Algal effect experiment (algal activity by cell counting); format: cell-based; details: concentration of 6 μM or more
diatoms = test: as above; format: cell-based; details: 1, 2 and 6 μM, up to 72 hours
Experimental: (§4) The harmful algae algal effect at various inoculation concentrations of the compounds according to an example of the present disclosure was measured. To this end, freshwater harmful algae as treated group include blue-green algae, cyanobacteria microcystis aeruginosa, dolichospermum circinale, aphanizomenon sp., and pseudoanabaena sp., diatoms, stephanodiscus hantzschii, and synedra sp., and green algae, scenedesmus sp., and seawater harmful algae includes trichodesmium sp., alexandrium tamarens, cochlodinium polykrikoides, prorocentrum minimum, and heterosigma akashiwo which are blue-green algae, and pseudo-nitzschia pungens fungens which is diatoms. The culture conditions are shown in [Table 1] below.
(§5) Reviewing the details of the experiment, in the case of freshwater species, 5 mL of each culture line was prepared so that the cell density was 5.0×10^3-9.0×10^4 cells/mL, and in the case of seawater species, was prepared so that the cell density was 1.0×10^2-1.0×10^4 cells/mL. After preparing each culture, the compounds specified as [Chemical Formula 1] prepared according to Examples were inoculated at various concentrations, and are treated so that the final concentrations were 1, 2, and 6 μM, respectively. Then, the compositions were cultured under the culture conditions of [Table 1], and cultured under continuous light conditions and observed for 72 hours. Counting of the number of cells was performed through an SR-chamber or a hemocytometer under an upright or inverted microscope, and by counting the number of cells after 24 hours, 48 hours, and 72 hours, the reduction ratio of cells compared to before treatment, that is, algal activity (%) was calculated using the following [Equation 1].
(§6) Algal activity (%)=(1−Tt/Ct)×100 [Equation 1]
(§7) In this case, in [Equation 1], T represents the density of cells after treating the compound, C represents the density of cells not treating the compound, and t represents the culture time.
(§8) Based on the above [Formula 1], the algal activity of the compound was expressed as 60% or less, 60 to 80%, 80% or more. When the algal activity reached 80% within 48 hours at any compound concentration, it was determined that there was an effect at a concentration higher than that and the high concentration experiment was stopped.

[3] = tested on: cochlodinium polykrikoides; test: as above; format: cell-based; details: concentration of 1 μM or more
Experimental: as §4, §5, §6, §7, §8

heterosigma akashiwo = test: as above; format: cell-based; details: concentration of 2 μM or more
Experimental: as §4, §5, §6, §7, §8

green algae = test: as above; format: cell-based; details: 1, 2 and 6 μM, up to 72 hours
Experimental: as §4, §5, §6, §7, §8

aphanizomenon = test: as above; format: cell-based, aphanizomenon sp.; details: concentration of 2 μM or more
Experimental: as §1, §2, §3

alexandrium tamarence = test: as above; format: cell-based, alexandrium tamarens; details: concentration of 1 μM or more
Experimental: as §1, §2, §3

dolichospermum = test: as above; format: cell-based, dolichospermum circinale; details: concentration of 1 μM or more
Experimental: as §1, §2, §3

Scenedesmus = test: as above; format: cell-based, scenedesmus sp.; details: 1, 2 and 6 μM, up to 72 hours
Experimental: as §1, §2, §3

[4] = Biodegradability in on-site stream water (UHPLC-DAD); format: physicochemical; details: Jungnangcheon stream water, 6.5 μM input, 20° C.
Experimental: An experiment was performed to evaluate the biodegradability in the water system of the compound of [Chemical Formula 1] according to the example of the present disclosure. First, on-site water from the Jungnangcheon stream in Seoul was collected and sprayed so that the concentration of the substance was 6.5 μM, and then acclimatized to a constant temperature condition of 20° C. The experimental volume was 350 mL, and samples were taken at intervals of 1-3 days, and 5 mL was taken per one time. This sample was filtered with a GF/F filter and stored frozen, and then melted at room temperature for analysis, filtered again with a 0.45 μm nylon filter, and then proceeded under the following analysis conditions. • Equipment: Agilent 1290 Infinity (UHPLC-DAD) • Column: Eclipse Puls-[…] (4.6 mm*100 mm*3.5 μm) • Column temperature: 40° C. • Mobile phase: Isocratic=>A: 0.1% phosphoric acid in D.W, B: ACN=70:30 • Analysis time: 7 min • Flow rate: 1.0 mL/min • Detector: DAD Detector (measurement waveform: 260 nm) • Injection volume: 1 μL

## CCN(CC)CCNC1=CC(=O)c2ccccc2C1=O [Chemical Formula 1, 2-((2-(diethylamino)ethyl)amino)naphthalene-1,4-dione HCl]
[1]; sample added at 1 μM
  relative luminance versus control group: did not differ from that of the control group
[1]; after 24 hours
  relative luminescence of the luminescent bacteria: 100%
[1]; after 48 hours
  relative luminescence of the luminescent bacteria: 100%
[1]; after 72 hours
  relative luminescence of the luminescent bacteria: 100%
Synedra
  algal effect: 70%
microcystis
  algal effect (killed): ≥ 90%
[2]; 1,4-dioxane
  solubility: slightly dissolved
[2]; dimethyl sulfoxide (DMSO)
  solubility: well dissolved
[2]; ethanol (EtOH)
  solubility: slightly dissolved
Akashiwo sanguinea
  algal effect: more than 80%
diatoms
  algal effect: insignificant
[3]
  algal effect: more than 90%
Heterosigma akashiwo
  algal effect: more than 90%
Green algae
  algal effect: insignificant
aphanizomenon
  algae effect: ≥ 80%
Alexandrium tamarence
  algal effect: more than 90%
dolichospermum
  algal effect (killed): ≥ 90%
Scenedesmus
  algal effect: hardly observed
[4]; 7th day
  concentration of the substance relative to the initial input concentration: 70%
[4]; until the first 2 days
  concentration of the substance: maintained at the input concentration level

— patent US20220144752A1, “WATER-SOLUBLE NAPHTHOQUINONE DERIVATIVE COMPOSITION AND METHOD FOR PRODUCING SAME, WATER-SOLUBLE COMPOSITION FOR CONTROLLING HARMFUL ALGAE, METHOD FOR CONTROLLING LARGE-SCALE HARMFUL ALGAE, AND AUTOMATION SYSTEM FOR AI-MONITORING, REMOVING, AND PREVENTING LARGE-SCALE HARMFUL ALGAE” (priority 2019, published 2022)
